Assay results as given in US11957680B2, “Pyruvate kinase activators for use in treating blood disorders” (Agios Pharmaceuticals, Inc., priority 2017, dated 2024).

Experiments:
wild type PKR [1] = biological target: T1, wild type PKR (Homo sapiens, UniProt P30613); experiment: PKR (wild type) enzyme AC50 assay, LDH/NADH-coupled, absorbance at 340 nm; assay type: biochemical; settings: for AC50: Table 2, enzyme assay, read-out: PKR WT AC50; for EC50: Table 4, AC50, enzyme assay, read-out: PKR WT
Method in brief: (§1)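 Human PKR, wild type or K410E/R510Q mutant (40-400 ng/well), preincubated 60 min at room temperature with compound (11-point 3-fold series from 100 μM, 1% DMSO) in Tris pH 7.5/KCl/MgCl2 buffer with PEP 0.1-0.5 mM, 180 μM NADH, LDH. ADP (0.2-1.65 mM) started the reaction; LDH-coupled NADH consumption followed at 340 nm.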

PKR K410E = PKR K410E (Homo sapiens, UniProt P30613, K410E); experiment: PKR mutant assay (K410E), AC50, LDH/NADH-coupled, absorbance at 340 nm; assay type: biochemical; settings: for AC50: Table 2, enzyme assay; for EC50: Table 4, AC50, enzyme assay
PKR K410E, sequence (P30613 whole entry K410E): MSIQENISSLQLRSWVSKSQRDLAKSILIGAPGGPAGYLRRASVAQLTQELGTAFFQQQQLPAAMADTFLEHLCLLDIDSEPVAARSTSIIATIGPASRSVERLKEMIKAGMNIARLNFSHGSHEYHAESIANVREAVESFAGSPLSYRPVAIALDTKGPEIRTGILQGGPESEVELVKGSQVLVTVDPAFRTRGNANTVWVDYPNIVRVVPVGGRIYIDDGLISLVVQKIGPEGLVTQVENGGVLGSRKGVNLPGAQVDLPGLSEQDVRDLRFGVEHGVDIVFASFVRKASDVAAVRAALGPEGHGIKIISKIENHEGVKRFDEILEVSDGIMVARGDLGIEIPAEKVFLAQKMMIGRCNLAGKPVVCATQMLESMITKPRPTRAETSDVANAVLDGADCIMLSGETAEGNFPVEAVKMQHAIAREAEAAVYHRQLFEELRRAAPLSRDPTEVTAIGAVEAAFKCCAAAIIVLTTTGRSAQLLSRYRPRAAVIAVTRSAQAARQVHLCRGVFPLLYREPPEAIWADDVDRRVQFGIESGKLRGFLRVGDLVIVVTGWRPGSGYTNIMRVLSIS
Method in brief: as §1

PKR R510Q = PKR R510Q (Homo sapiens, UniProt P30613, R510Q); experiment: PKR mutant assay (R510Q), AC50, LDH/NADH-coupled, absorbance at 340 nm; assay type: biochemical; settings: for AC50: read-out: PK R510Q AC50; for EC50: Table 4, AC50, enzyme assay, read-out: PK R510Q
PKR R510Q, sequence (P30613 whole entry R510Q): as the sequence (P30613 whole entry K410E) above, with E410K, R510Q counted along it
Method in brief: as §1

wild type PKR [2] = biological target: T1, wild type PKR; experiment: Cell based ATP assay in purified red blood cells (Cell-Titer-Glo); set-up: endogenous in cells; host or cells: purified red blood cells from healthy volunteers; settings: overnight at 37° C., ATP levels; for AC50 / Cell based ATP assay AC50: Table 2, RBCs
Method in brief: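 RBCs from healthy human donors' K2EDTA blood were leukocyte-depleted by filtration and resuspended in AGAM (PBS, 1% glucose, adenine, mannitol). Cells at 1×10^7 cells/mL were incubated overnight at 37 °C with serially diluted compound at 0.1% DMSO, and ATP was read by Cell-Titer-Glo luminescence.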

T1 sequence (P30613 whole entry): as the sequence (P30613 whole entry K410E) above, with E410K counted along it

Row | SMILES | AC50 (wild type PKR [1]) [nM] | AC50 (PKR K410E) [nM] | AC50 (PKR R510Q; Table 2, enzyme assay) [nM] | AC50 (wild type PKR [2]) [nM] | EC50 (wild type PKR [1]) [nM] | EC50 (PKR K410E) [nM] | EC50 (PKR R510Q) [nM] | EC50 (wild type PKR [2]; Table 4, AC50, RBCs) [nM] | Cell based ATP assay AC50 (wild type PKR [2]) | Cell based ATP assay (wild type PKR [2]; Table 4, AC50, RBCs) | PK R510Q AC50 (PKR R510Q; Table 2, enzyme assay)
1 | Cn1c2nc(Cc3n[nH]cc3C(F)(F)F)sc2c2cnn(Cc3cccc4[nH]ncc34)c(=O)c21 [Compound 172] | > 800 | > 800 | > 800 | > 1000 |  |  |  |  |  |  | 
2 | CN(c1csc(Cc2cnc(=O)[nH]c2)n1)c1ccnn(Cc2cccc3[nH]ncc23)c1=O [Compound 208] |  |  |  |  | > 800 | > 800 | > 800 | > 1000 |  |  | 
3 | Cn1c2nc(Cc3c[nH]nn3)sc2c2cnn(Cc3ccc(OC(F)(F)F)cc3)c(=O)c21 [Compound 295] |  |  |  |  | < 300 | < 300 | < 300 | ≤ 1000 |  |  | 
4 | Cn1ccc(CCn2ncc3c4sc(Cc5cccnc5)nc4n(C)c3c2=O)n1 [Compound 400] |  |  |  |  | > 800 | > 800 | > 800 | > 1000 |  |  | 
5 | Cn1c2nc(Cc3cc[nH]n3)sc2c2cnn(CC3CCCCC3)c(=O)c21 [Compound 397] |  |  |  |  | > 800 | > 800 | > 800 |  |  | No Fit | 
6 | Cn1c2nc(NCc3ccccc3)sc2c2cnn(Cc3cccc4[nH]ncc34)c(=O)c21 [Compound 149] | 301 to 800 | 301 to 800 | 301 to 800 | > 1000 |  |  |  |  |  |  | 
7 | Cn1c2nc(Cc3cnoc3)sc2c2cnn(Cc3cccc4[nH]ncc34)c(=O)c21 [Compound 185] | > 800 | 301 to 800 | 301 to 800 | > 1000 |  |  |  |  |  |  | 
8 | CCOC(=O)Cn1ncc2c3sc(C)nc3n(C)c2c1=O [Compound 66] | > 800 | > 800 |  |  |  |  |  |  | No Fit |  | No Fit
9 | COc1cccc(Cn2ncc3c4sc(S(=O)(=O)c5ccccc5)nc4n(C)c3c2=O)c1 [Compound 36] | > 800 | 301 to 800 | 301 to 800 | > 1000 |  |  |  |  |  |  | 
10 | Cn1c2nc(SCc3ccccc3)sc2c2cnn(Cc3cccc4[nH]ncc34)c(=O)c21 [Compound 121] | 301 to 800 | > 800 | 301 to 800 | > 1000 |  |  |  |  |  |  | 
11 | Cn1c2nc(Cc3cccc(S(N)(=O)=O)c3)sc2c2cnn(Cc3cccc4[nH]ncc34)c(=O)c21 [Compound 155] | 301 to 800 | < 300 | < 300 | ≤ 1000 |  |  |  |  |  |  | 

Next, values leading:

Row | AC50 (wild type PKR [1]) [nM] | AC50 (PKR K410E) [nM] | AC50 (PKR R510Q; Table 2, enzyme assay) [nM] | AC50 (wild type PKR [2]) [nM] | EC50 (wild type PKR [1]) [nM] | EC50 (PKR K410E) [nM] | EC50 (PKR R510Q) [nM] | EC50 (wild type PKR [2]; Table 4, AC50, RBCs) [nM] | Cell based ATP assay AC50 (wild type PKR [2]) | Cell based ATP assay (wild type PKR [2]; Table 4, AC50, RBCs) | PK R510Q AC50 (PKR R510Q; Table 2, enzyme assay) | SMILES
12 |  |  |  |  | < 300 | < 300 | < 300 | ≤ 1000 |  |  |  | Cn1c2nc(Cc3cc[nH]n3)sc2c2cnn(Cc3ccc4cc(F)[nH]c4n3)c(=O)c21 [Compound 391]
13 |  |  |  |  | < 300 | < 300 | < 300 | ≤ 1000 |  |  |  | Cn1c2nc(Cc3cc[nH]n3)sc2c2cnn(Cc3ccc4oc(=O)[nH]c4n3)c(=O)c21 [Compound 386]
14 | > 800 | > 800 | > 800 |  |  |  |  |  | No Fit |  |  | CSc1nc2c(s1)c1cnn(Cc3ccc(S(N)(=O)=O)cc3)c(=O)c1n2C [Compound 116]
15 | > 800 | > 800 | > 800 | > 1000 |  |  |  |  |  |  |  | Cc1nc2c(s1)c1cnn(Cc3cn[nH]c3)c(=O)c1n2C [Compound 72]
16 |  |  |  |  | < 300 | < 300 | < 300 | ≤ 1000 |  |  |  | Cn1c2nc(Cc3cc[nH]n3)sc2c2cnn(Cc3ccc4c(F)c[nH]c4n3)c(=O)c21 [Compound 383]
17 | < 300 | < 300 | < 300 | ≤ 1000 |  |  |  |  |  |  |  | COc1cccc(Cn2ncc3c4sc(C(C)O)nc4n(C)c3c2=O)c1 (centres unmarked) [Compound 52]
18 | > 800 | < 300 | < 300 | ≤ 1000 |  |  |  |  |  |  |  | Cc1nc2c(s1)c1cnn(Cc3cccc4c3cnn4C)c(=O)c1n2C [Compound 76]
19 | < 300 | < 300 | 301 to 800 | ≤ 1000 |  |  |  |  |  |  |  | Cn1c2nc(C#N)sc2c2cnn(Cc3cccc(N)n3)c(=O)c21 [Compound 147]
20 | > 800 | > 800 | > 800 |  |  |  |  |  | No Fit |  |  | Cc1nc2c(s1)c1cnn(Cc3cccc([N+](=O)[O-])c3)c(=O)c1n2C [Compound 47]
